What was measured:
Type in all cases: cell-based
[1] = system: two common mold species (Aspergillus and Fusarium); experiment: Mold control on treated wood, overall statements for both molds
Procedure: (§1) To determine the effectiveness of compositions containing an alkyl amine in combination with OIT and/or BBIT, such compositions were compared to compositions containing only an alkyl amine or compositions containing only OIT or BBIT. The efficacy of those compositions was shown by applying the compositions to Southern Yellow Pine (SYP) wood samples.
(§2) After the SYP samples were treated with the particular composition to be evaluated, the samples were placed onto a support in an extra depth Petri-dish.
(§3) A fungal spore suspension of two common mold species (Aspergillus and Fusarium) was spread on top of the wood sample. Fungal hyphal growth on the surface of samples was examined under the microscope once every week. The scale based on mycelial coverage of wood surface is as follows:
(§4) To evaluate the effectiveness of the compositions against common species of mold, compositions containing various levels of BBIT, OIT and C12-alkyl amine or a mixture of these components were tested on SYP wood blocks using the testing protocol discussed above. Specifically, compositions shown in Table 2A were applied to the wood blocks to determine anti-fungal efficacy of the compositions.
It is noted that compositions containing OIT and C12-alkyl amine were obtained by mixing compositions A0 and B0 in the recited ratio. […]

[2] = system: Fusarium sp; experiment: Mold growth on treated Southern Yellow Pine wood samples, Fusarium
Procedure: as §1, §2, §3, §4
(§5) It is noted that compositions containing OIT and C12-alkyl amine were obtained by mixing compositions A0 and B0 in the recited ratio. Likewise, compositions containing BBIT and C12-alkyl amine were obtained by mixing compositions A0and C0.

[3] = system: Aspergillus sp; experiment: Mold growth on treated Southern Yellow Pine wood samples, Aspergillus
Procedure: as §1, §2, §3, §4, §5

## CCCCn1sc2ccccc2c1=O [BBIT alone, N-n-butyl-1,2-benzisothiazolin-3-one]
[1]; concentration of 80 ppm
  performance as a moldicide: performed effectively as a moldicide
[2]; ratio 1:0, 80 ppm, 1 week
  Fusarium sp mycelial coverage: 0 (0%)
[2]; ratio 1:0, 80 ppm, 2 weeks
  Fusarium sp mycelial coverage: 0 (0%)
[2]; ratio 1:0, 80 ppm, 3 weeks
  Fusarium sp mycelial coverage: 1 (<10%)
[2]; ratio 1:0, 80 ppm, 4 weeks
  Fusarium sp mycelial coverage: 1 (<10%)
[3]; ratio 1:0, 80 ppm, 1 week
  Aspergillus sp mycelial coverage: 0 (0%)
[3]; ratio 1:0, 80 ppm, 2 weeks
  Aspergillus sp mycelial coverage: 0 (0%)
[3]; ratio 1:0, 80 ppm, 3 weeks
  Aspergillus sp mycelial coverage: 0 (0%)
[3]; ratio 1:0, 80 ppm, 4 weeks
  Aspergillus sp mycelial coverage: 1 (<10%)

## CCCCCCCCCCCCN(C)C [C12-alkyl amine alone]
[2]; Table 4, 1000 ppm, 1 week
  Fusarium sp mycelial coverage: 0, 0, 0, 0 (0%)
[2]; Table 4, 1000 ppm, 2 weeks
  Fusarium sp mycelial coverage: 0, 0, 0, 0 (0%)
[2]; Table 4, 1000 ppm, 3 weeks
  Fusarium sp mycelial coverage: 0, 0, 0, 0 (0%)
[2]; Table 4, 1000 ppm, 4 weeks
  Fusarium sp mycelial coverage: 0, 0, 0, 0 (0%)
[2]; ratio 0:1, 1000 ppm, 1 week
  Fusarium sp mycelial coverage: 0, 0, 0, 0 (0%)
[2]; ratio 0:1, 1000 ppm, 2 weeks
  Fusarium sp mycelial coverage: 0, 0, 0, 0 (0%)
[2]; ratio 0:1, 1000 ppm, 3 weeks
  Fusarium sp mycelial coverage: 0, 0, 0, 0 (0%)
[2]; ratio 0:1, 1000 ppm, 4 weeks
  Fusarium sp mycelial coverage: 0, 0, 0, 0 (0%)
[2]; used alone, 1000 ppm, against Fusarium
  performance as a moldicide: performed effectively as a moldicide
[3]; Table 4, 1000 ppm, 1 week
  Aspergillus sp mycelial coverage: 0 (0%)
[3]; Table 4, 1000 ppm, 2 weeks
  Aspergillus sp mycelial coverage: 2 (˜10-30%)
[3]; Table 4, 1000 ppm, 3 weeks
  Aspergillus sp mycelial coverage: 3 (˜30-60%)
[3]; Table 4, 1000 ppm, 4 weeks
  Aspergillus sp mycelial coverage: 3 (˜30-60%)
[3]; ratio 0:1, 1000 ppm, 1 week
  Aspergillus sp mycelial coverage: 0 (0%)
[3]; ratio 0:1, 1000 ppm, 2 weeks
  Aspergillus sp mycelial coverage: 2 (˜10-30%)
[3]; ratio 0:1, 1000 ppm, 3 weeks
  Aspergillus sp mycelial coverage: 3 (˜30-60%)
[3]; ratio 0:1, 1000 ppm, 4 weeks
  Aspergillus sp mycelial coverage: 3 (˜30-60%)
[3]; used alone, 1000 ppm, against Aspergillus
  performance as a moldicide: less effective

## CCCCCCCCn1sccc1=O [OIT alone, 2-n-octyl-4-isothiazolin-3-one]
[1]; concentration of 100 ppm
  performance as a moldicide: performed effectively as a moldicide
[2]; ratio 1:0, 100 ppm, 1 week
  Fusarium sp mycelial coverage: 0, 0, 0, 0 (0%)
[2]; ratio 1:0, 100 ppm, 2 weeks
  Fusarium sp mycelial coverage: 0, 0, 0, 0 (0%)
[2]; ratio 1:0, 100 ppm, 3 weeks
  Fusarium sp mycelial coverage: 0, 0, 0, 0 (0%)
[2]; ratio 1:0, 100 ppm, 4 weeks
  Fusarium sp mycelial coverage: 0, 0, 0, 0 (0%)
[3]; ratio 1:0, 100 ppm, 1 week
  Aspergillus sp mycelial coverage: 0 (0%)
[3]; ratio 1:0, 100 ppm, 2 weeks
  Aspergillus sp mycelial coverage: 0 (0%)
[3]; ratio 1:0, 100 ppm, 3 weeks
  Aspergillus sp mycelial coverage: 1 (<10%)
[3]; ratio 1:0, 100 ppm, 4 weeks
  Aspergillus sp mycelial coverage: 1 (<10%)

— patent US20080063723A1, “ISOTHIAZOLIN-3-ONE-CONTAINING ANTIMICROBIAL COMPOSITION” (priority 2006, published 2008)
